“Also recorded” adds a separate entry of the source.
Key:
[1] = system: porcine subcutaneous arteries; experiment: Ex vivo vasorelaxation of U46619-preconstricted arteries (wire myograph); parameters: species or system pig; conditions: isolated porcine subcutaneous arteries preconstricted with U46619 (1 μM); for Effect on vascular tone (vasorelaxation): niacinamide at 200 mM, 1-methyl-niacinamide cumulative concentrations, two animals
Description: Vessels were cut into 1.5 mm cylindrical segments, threaded onto two 40 μm diameter stainless steel wires and mounted on a Mulvany-Halpern myograph (Danish Myograph Technology, A/S). […] Contractile force was recorded via a PowerLab unit and Labchart software (AD Instruments). Vessels were pre-stretched in calcium-free PSS to a lumen diameter of 0.9 × L100, where L100 is an estimate of the diameter of the vessel under a passive transmural pressure of 100 mmHg. This was performed using the normalization module in LabChart7.

[2] = system: skin perfusion; experiment: Laser speckle contrast analysis (LASCA) of skin perfusion in pigs; assay type: in vivo, pig; conditions: anesthetized pigs, intradermal injection in neck, niacinamide 170 mM, 1-methyl-niacinamide 170 mM, prostaglandin E1 10 μg/ml, 0–15 min, n=4
Description: Formulations of prostaglandin E1 (10 μg/ml), niacinamide (170 mM) or saline were injected intradermally in the neck area of anesthetized pigs. A PeriCam PSI system (Perimed, Sweden) was used to record one image per second for approximately 15 min. Perfusion units per min were compared using one-way ANOVA.
Niacinamide increases subcutaneous blood flow in pigs
Video: Representative LASCA perfusion experiment.
LASCA images were recorded following intradermal injection of saline, prostaglandin E1 and niacinamide formulations into the neck area of anesthetized pigs. Saline (170 mM NaCl, 10 mM phosphate, pH 7.4) was injected into region 1 (blue) and 6 (black), 10 µg/ml prostaglandin E1 (170 mM NaCl, 10 mM phosphate, pH 7.4) was injected into region 2 (red), 170 mM niacinamide (85 mM NaCl, 10 mM phosphate, pH 7.4) was […]
was necessary). Compound x (region 4, dark red) was an additional compound studied for vasodilation but is not included in the present analysis.
(1 picture or pasted object on this page, not shown here)

[3] = system: regional subcutaneous blood flow; experiment: Xenon-133 washout after injection into the neck of pigs; assay type: in vivo, pig; conditions: vehicle without insulin aspart, niacinamide 170 mM (n=21), prostaglandin E1 4 μg/ml (n=8), mean (±SD), saline –0.71
Description: For each experiment, an insulin aspart containing vehicle was injected on one side of a pig, while the same vehicle without insulin aspart was injected into the other side. Prostaglandin E1 was included as a positive control. A gamma sensor was mounted over each injection site to measure the decay in Xe-133 signal. […] Regression line slopes in the 0–15 min interval were compared using one-way analysis of variance (ANOVA).

[4] = system: skin perfusion; experiment: Laser Doppler imaging (LDI) of skin perfusion in pigs; assay type: in vivo, pig; conditions: anesthetized pigs, subcutaneous injection at 3 mm depth, niacinamide 170 mM, prostaglandin E1 10 μg/ml, baseline corrected, n=4
Description: LDI (moorLDI2-IR, Moor Instruments, UK) was used to record a series of images (approximately one image per 3.5 min for approximately 30 min) following a protocol in anesthetized pigs similar to the one used for LASCA. Due to the increased skin penetration depth of the LDI system, subcutaneous injections were performed at a 3 mm depth using a 32G needle. Injections were performed in areas that could be scanned in the same image.

[5] = Disappearance of niacinamide and 1-methyl-niacinamide from subcutaneous injection depots in pigs (tissue sampling, LC-MS/MS); conditions: 170 mM, 50 μl, LC-MS/MS of tissue homogenate, n=9
Description: Pigs (70–90 kg) were anesthetized using Zoletil mixture (1 mg/10 kg; Virbac, Denmark) with intravenous supplement of propolipid (Fresenius Kabi, Sweden). […] Tissue samples measuring ~2 x 2 cm were excised at 0 min (acute), 2, 5, 15 or 60 min after injection and immediately frozen in 2-methyl-butane. […] Following euthanasia by overdose of pentobarbital (Lundbeck, Denmark), tissue samples measuring ~10 x 10 cm were excised and injected to obtain ex vivo 0 min (acute) and 60 min depots.
Tissue samples were cut into smaller blocks, thawed and diluted with phosphate buffer (180 mM; pH 7.4) at a ratio of 3 ml to 1 g of tissue. Tissue was homogenized with two cycles (one cycle consisting of 10 sec homogenization, 60 sec pause, 10 sec homogenization) at 8800 rpm (Precellys Evolution homogenizer, Bertin Instruments, France) or until the sample was considered homogenized.
Protein was precipitated from the tissue homogenate by adding three volumes of acetonitrile. Samples were centrifuged for 30 min at 4°C and the supernatants analyzed on a QTRAP® Triple Quadrupole coupled with an Acquity liquid chromatography system (Waters, USA).

Structure (SMILES): C[n+]1cccc(C(N)=O)c1 [1-methyl-niacinamide]
- Effect on vascular tone (vasorelaxation) [1]: no substantial effect on vascular tone; also recorded: vasorelaxation was not detected
- Skin perfusion by LASCA compared with saline [2]: did not increase the LASCA signal

Structure (SMILES): CCCCC[C@H](O)/C=C/[C@H]1[C@H](O)CC(=O)[C@@H]1CCCCCCC(=O)O [prostaglandin E1]
- Xe-133 washout regression line slope, 0–15 min interval [3]: –2.47 % per min
- Skin perfusion by LASCA compared with saline [2]: clear increase in skin perfusion
- Skin perfusion by LDI compared with saline [4]: increased skin perfusion

Structure (SMILES): NC(=O)c1cccnc1 [niacinamide]
- EC50 ([1]; Sus scrofa, sc, cumulative 1 μM–200 mM, PSS 37°C pH 7.4, six animals): 11.3 mM
- Effect on vascular tone (vasorelaxation) [1]: maximal vasorelaxation
- Xe-133 washout regression line slope, 0–15 min interval [3]: –1.24 % per min
- Skin perfusion by LASCA compared with saline [2]: intermediate increase
- Skin perfusion by LDI compared with saline [4]: increased skin perfusion
- Amount remaining in subcutaneous depot 60 min post-injection [5]: decreased to amounts comparable to the blank control

Source: publication PMC6373292 (Pharmaceutical Research, 2019)
